Assay in all cases: inhibition of tumour cell growth, NCI panel, 48 h
The subject of assay [1] is SF-539 CNS.
In assay [2] the test system is OVCAR-5 ovarian.
The test system of assay [3] is HOP-92 NSCLC.
Assay [4] relates to COLO 205 colon.
The subject of assay [5] is RXF 393 renal.
Assay [6] concerns 786-0 renal.
Assay [7] concerns MDA-MB-435.
For assay [8], the system named is A498 renal.
The subject of assay [9] is CCRF-CEM leukemia.
The test system of assay [10] is T-47D breast.

Here are results for ten compounds from PubChem BioAssay (NCI).

Structures are written as SMILES.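 Tested at 5 concentrations; 48 h exposure; 96-well plates; endpoints linearly interpolated, else capped at highest concentration. GI50 is the concentration that inhibits growth by half. Definition used: TGI = concentration required for complete inhibition of growth.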 Bounds are passed on as bounds.

As to `Cc1sc2c(c1C)C(c1ccc(Cl)cc1)=N[C@@H](CC(=O)Nc1ccc(OCCOCCOCCOCCNc3cccc4c3C(=O)N(C3CCC(=O)NC3=O)C4=O)cc1)c1nnc(C)n1-2` (stereo not given in full), the GI50 in assay [1] is 0.242 µM; in [2], less than 0.0465 µM; in assay [3], less than 0.0125 µM; in [4], less than 0.0279 µM; in [5] it was 0.803 µM; in assay [7], less than 0.0453 µM. The GI50 in [8] was 0.013 µM; in assay [9], less than 0.0222 µM. Besides, the TGI in [1] was more than 100 µM; in assay [2], more than 100 µM; in assay [3], more than 51.8 µM; in assay [4], more than 82.4 µM; in assay [5] it was 48.5 µM; in assay [6] it was more than 100 µM. In addition, the TGI was more than 100 µM in [7], 0.0962 µM in assay [8] and more than 100 µM in assay [9].
As to `NCCCOc1cc2ccccc2cc1C(=O)NCCCOc1cc2ccccc2cc1C(=O)Nc1ccc(Cl)cc1O`, the GI50 is 1.05 µM in assay [1]; 1.09 µM in assay [2]; 1.7 µM in assay [4]; 0.24 µM in [5]; 0.199 µM in [6]; 1.88 µM in assay [10]. For the same compound, the GI50 in [7] is 0.899 µM; in assay [8], 0.552 µM; in assay [9] it was 0.334 µM. The TGI in assay [1] is 2.57 µM; in [2] it was 2.56 µM; in assay [4], 3.34 µM; in assay [5], 0.928 µM; in assay [6], 0.441 µM; in assay [10], 4.24 µM. The TGI in [7] came out at 2.6 µM; in assay [8], 1.99 µM; in assay [9], 11.5 µM.
Regarding `CCc1nc(Cl)c(Cl)c(Cl)n1`, the TGI in [1], in assay [2], in [5], in [6], in assay [7] and in assay [9] was more than 100 µM throughout.
Regarding `NC(N)=N/N=C(\N=Nc1ccccc1)c1ccc(Cl)cc1`, the GI50 was 2.98 µM in assay [1]; 3.69 µM in assay [2]; 2.46 µM in assay [4]; 2.69 µM in assay [5]; 2.03 µM in assay [6]; 2.31 µM in [10]. In addition, the GI50 in assay [7] is 1.7 µM; in assay [8], 9.53 µM; in assay [9], 1.76 µM. For the same compound, the TGI in assay [1] is 8.1 µM; in assay [2] it was 16.8 µM; in [4], 5.36 µM; in [5], 9.33 µM; in assay [6], 8.36 µM; in assay [10], 8.17 µM. The TGI amounted to 4.36 µM in assay [7], 22.2 µM in assay [8] and 5.78 µM in [9].
Regarding `COc1ccc(/C=C/c2cnccn2)cc1OC`, the TGI in assay [1], in assay [2], in assay [3], in assay [4], in assay [5] and in assay [6] was more than 10 µM each time. Moreover, the TGI in assay [10], in [7] and in assay [8] was more than 10 µM in each case.
In the case of `Cc1c2c(C(N)=O)nccc2c(C)c2c1c1ccccc1n2Cc1ccccc1`, the TGI was 37.7 µM in [1]; more than 100 µM in assay [2]; 25.1 µM in assay [3]; 31.9 µM in assay [5]; 15.9 µM in assay [6]; 79.5 µM in assay [10]. In addition, the TGI in assay [7] was more than 100 µM; in assay [8] it was 46 µM; in assay [9], 62.6 µM.
Take `O=C(NNc1cnccn1)c1nc2cc(F)ccc2n2cccc12`: the GI50 in assay [1] is 0.847 µM; in [2], 0.828 µM; in assay [4] it was 0.331 µM; in assay [6] it was 0.572 µM; in assay [10] it was 0.385 µM; in assay [7], 0.873 µM. Besides, the values for the GI50 in assay [8] and in [9] were 0.575 µM and 0.211 µM, respectively. In addition, the TGI in assay [1] is more than 31.6 µM; in assay [2], more than 100 µM; in [4] it was more than 100 µM; in assay [6], more than 100 µM; in assay [10], more than 100 µM; in assay [7] it was more than 100 µM. Also, the TGI in assay [8] was 2.67 µM; in assay [9], more than 100 µM.
Turning to `COc1ccc(-c2noc(N)c2-c2cc(OC)c3c(c2)OCO3)cc1`, the GI50 is 1.76 µM in [1]; 5.63 µM in assay [2]; 2.47 µM in assay [3]; 2.34 µM in assay [4]; 2.6 µM in [5]; 8.36 µM in assay [6]. Also, the GI50 in [10] was 3.61 µM; in [8] it was 1.24 µM; in assay [9], 1.45 µM. In addition, the TGI in assay [1] was 4.91 µM; in [2], more than 82.2 µM; in assay [3], 76.8 µM; in [4], 9.41 µM; in assay [5], 15 µM; in assay [6], more than 100 µM. Further, the TGI was more than 54.8 µM in assay [10], 7.55 µM in [8] and more than 35.8 µM in [9].
Consider `Cn1cc(-c2csc(-c3cn(C)c4ccc(F)cc34)n2)c2cnccc21`, for which the GI50 in [1] was 1.85 µM; in [2] it was 1.68 µM; in assay [3], 1.64 µM; in assay [5], 1.61 µM; in assay [6], 1.51 µM; in assay [7] it was 1.67 µM. In addition, the GI50 in assay [8] is 1.62 µM; in assay [9], 1.96 µM. The TGI is 3.35 µM in [1]; 3.15 µM in assay [2]; 3.26 µM in assay [3]; 3.05 µM in [5]; 2.96 µM in [6]; 3.1 µM in [7]. Also, the TGI in assay [8] amounted to 3.04 µM; in [9], 4.13 µM.
For `COc1cc(OC)c2sc(-c3ccc(-n4cncc4-c4cc(OC)c(OC)c(OC)c4)cc3)nc2c1`, the GI50 in assay [1] was 8.59 µM; in [2] it was more than 100 µM; in assay [4], 4.51 µM; in assay [5], 2.8 µM; in assay [6] it was 7.38 µM; in assay [10], 3.35 µM. The figures for the GI50 in assay [7], in [8] and in assay [9] were 3.41 µM, 1.83 µM and 3.95 µM, respectively. The TGI in assay [1], in assay [2], in [4], in assay [5], in assay [6] and in [10] was more than 100 µM throughout. Also, the TGI in [7], in assay [8] and in [9] was more than 100 µM each time.
